According to US20230365526A1, “PYRIDAZINE DERIVATIVES FOR MODULATING NUCLEIC ACID SPLICING” (REMIX THERAPEUTICS INC., priority 2020, published 2023):
pIC50: −log10 of the molar value. Where a name gives a salt, the structure may show the parent alone. Read-outs that look alike come from different tables or passages of the source.

How the values were obtained:
Type in all cases: cell-based
HTT mRNA = experiment: RT-qPCR splicing assay monitoring HTT canonical (CJ) and alternative (AJ) junction mRNA in A673 or K562 cells; details: 24 hours compound treatment, top dose 10 uM
Protocol: (§1) Compounds described herein were used to modulate RNA transcript abundance in cells. The expression of a target mRNA was measured by detecting the formation of an exon-exon junction in the canonical transcript (CJ). A compound mediated exon-inclusion event was detected by observing an increase in formation of a new junction with an alternative exon (AJ). Real-time qPCR assays were used to detect these splicing switches and interrogate the potency of various compounds towards different target genes. A high-throughput real time quantitative PCR (RT-qPCR) assay was developed to measure these two isoforms of the mRNA (CJ and AJ) for an exemplary gene, HTT, together with a control housekeeping gene, GAPDH or GUSB or PPIA, used for normalization. Briefly, the A673 or K562 cell line was treated with various compounds described herein (e.g., compounds of Formula (I)). After treatment, the levels of the HTT mRNA targets were determined from each sample of cell lysate by cDNA synthesis followed by qPCR.
• Cells-to-CT 1-step kit: ThermoFisher A25602, Cells-to-CT lysis reagent: ThermoFisher 4391851C, TaqMan™ Fast Virus 1-Step Master Mix: ThermoFisher 4444436 • GAPDH: VIC-PL, ThermoFisher 4326317E (Assay: Hs99999905_m1)—used for K562/suspension cell lines • GUSB: VIC-PL, ThermoFisher 4326320E (Assay: Hs99999908_m1)—used for K562/suspension cell lines • PPIA: VIC-PL, ThermoFisher 4326316E (Assay: Hs99999904_m1)—used for A673/adherent cell lines
(§2) The A673 cell line was cultured in DMEM with 10% FBS. Cells were diluted with full growth media and plated in a 96-well plate (15,000 cells in 100 ul media per well). The plate was incubated at 37° C. with 5% CO2 for 24 hours to allow cells to adhere. An 11-point 3-fold serial dilution of the compounds was made in DMSO then diluted in media in an intermediate plate. Compounds were transferred from the intermediate plate to the cell plate with the top dose at a final concentration of 10 uM in the well. Final DMSO concentration was kept at or below 0.25%. The cell plate was returned to the incubator at 37° C. with 5% CO2 for an additional 24 hours.
(§3) The K562 cell line was cultured in IMDM with 10% FBS. For K562, cells were diluted with full growth media and plated in either a 96-well plate (50,000 cells in 50 uL media per well) or a 384-well plate (8,000-40,000 cells in 45 uL media per well). An 11-point 3-fold serial dilution of the compounds were made in DMSO then diluted in media in an intermediate plate. Compound was transferred from the intermediate plate to the cell plate with the top dose at a final concentration of 10 uM in the well. Final DMSO concentration was kept at or below 0.25%. Final volume was 100 uL for 96-well plate and 50 uL for 384-well plate. The cell plate was then placed in an incubator at 37° C. with 5% CO2 for 24 hours.
(§4) The cells were then gently washed with 50 uL-100 uL cold PBS before proceeding to addition of lysis buffer. 30 uL-50 uL of room temperature lysis buffer with DNAse I (and optionally RNAsin) was added to each well. Cells were shaken/mixed thoroughly at room temperature for 5-10 minutes for lysis to take place and then 3 uL-5 uL of room temperature stop solution was added and wells were shaken/mixed again. After 2-5 minutes, the cell lysate plate was transferred to ice for RT-qPCR reaction setup. The lysates could also be frozen at −80° C. for later use.
In some cases, a direct lysis buffer was used. An appropriate volume of 3×lysis buffer (10 mM Tris, 150 mM NaCl, 1.5%-2.5% Igepal and 0.1-1 U/uL RNAsin, pH 7.4) was directly added to either K562 or A673 cells in media and mixed by pipetting 3 times. The plates were then incubated at room temperature with shaking/rocking for 20-50 minutes to allow for lysis to take place. After this time, the cell lysate plate was transferred to ice to set up for the RT-qPCR reactions. The lysates could also be frozen at −80° C. for later use. […]

HTT = experiment: Gene panel canonical junction RT-qPCR assay: HTT; details: read-out: HTT (IC50, decrease in CJ mRNA levels)
Protocol: as §1, §2, §3, §4
(§5) In some cases, a direct lysis buffer was used. An appropriate volume of 3×lysis buffer (10 mM Tris, 150 mM NaCl, 1.5%-2.5% Igepal and 0.1-1 U/uL RNAsin, pH 7.4) was directly added to either K562 or A673 cells in media and mixed by pipetting 3 times. The plates were then incubated at room temperature with shaking/rocking for 20-50 minutes to allow for lysis to take place. After this time, the cell lysate plate was transferred to ice to set up for the RT-qPCR reactions. The lysates could also be frozen at −80° C. for later use.
(§6) To set up 10 uL RT-qPCR reactions, cell lysates were transferred to 384-well qPCR plates containing the master mix according to the table below. The plates were sealed, gently vortexed, and spun down before the run. The volumes were adjusted accordingly in some instances where the reaction was carried in 20 uL. The table below summarizes the components of the RT-qPCR reactions:
(§7) The RT-qPCR reaction was performed using a QuantStudio (ThermoFisher) under the following fast cycling conditions. […]

Target C = experiment: Gene panel canonical junction RT-qPCR assay: Target C; details: read-out: Target C (IC50, decrease in CJ mRNA levels)
Protocol: as §1, §2, §3, §4, §5, §6, §7

[1] = decrease in CJ mRNA, read-out: HTT CJ AC50
[2] = increase in AJ mRNA, read-out: HTT AJ AC50

Compound	AC50 (HTT mRNA; [1]) [nM]	AC50 (HTT mRNA; [2]) [nM]	pIC50 (HTT)	pIC50 (Target C)
COc1nc(-c2ccc(N(C)C3CC(C)(C)NC(C)(C)C3)nn2)ccc1-c1cnn(C)n1 [Compound 259]	100 to 1000	1000 to 10000	6.00 to 7.00	6.00 to 7.00
COc1nc(-c2ccc(OC3CC(C)(C)NC(C)(C)C3)nn2)ccc1-c1cnn(C)c1 [Compound 245, 3-[6-methoxy-5-(1-methylpyrazol-4-yl)pyridin-2-yl]-6-[(2,2,6,6-tetramethylpiperidin-4-yl)oxy]pyridazine]	100 to 1000	100 to 1000	> 7.00	6.00 to 7.00
COc1cc(-c2ccc(N(C)[C@@H]3C[C@H]4CC[C@@H](C3)N4)nn2)ncc1-c1cn[nH]c1 [Compound 248]	> 10000	> 10000	< 5.00	< 5.00
CN(c1ccc(-c2ccc(-c3cn[nH]c3)c(Cl)n2)nn1)[C@@H]1C[C@H]2CC[C@@H](C1)N2 [Compound 250, (exo)-N-{6-[6-chloro-5-(1H-pyrazol-4-yl)pyridin-2-yl]pyridazin-3-yl}-N-methyl-8-azabicyclo[3.2.1]octan-3-amine]	< 100	< 100	> 7.00	6.00 to 7.00
COc1nc(-c2ccc(OC3CC(C)(C)NC(C)(C)C3)nn2)ccc1-c1cn[nH]c1 [Compound 244, 3-[6-methoxy-5-(1H-pyrazol-4-yl)pyridin-2-yl]-6-[(2,2,6,6-tetramethylpiperidin-4-yl)oxy] pyridazine]	100 to 1000	100 to 1000	> 7.00	6.00 to 7.00
COc1nc(-c2ccc(OC3CC(C)(C)NC(C)(C)C3)nn2)ccc1-n1cccn1 [Compound 271, bis(3-[6-methoxy-5-(pyrazol-1-yl)pyridin-2-yl]-6-[(2,2,6,6-tetramethylpiperidin-4-yl)oxy]pyridazine)]	1000 to 10000	1000 to 10000	5.00 to 6.00	5.00 to 6.00
CN(c1ccc(-c2ccc(-c3cn[nH]c3)c(OC3CC3)n2)nn1)[C@@H]1C[C@H]2CC[C@@H](C1)N2 [Compound 286, (1R,3R,5S)—N-{6-[6-cyclopropoxy-5-(1H-pyrazol-4-yl)pyridin-2-yl]pyridazin-3-yl}-N-methyl-8-azabicyclo[3.2.1]octan-3-amine]	< 100	< 100	> 7.00	> 7.00
COc1nc(-c2ccc(N(C)[C@@H]3C[C@H]4CC[C@@H](C3)N4)nn2)cc(F)c1-c1cn[nH]c1 [Compound 268, (exo)-N-{6-[4-fluoro-6-methoxy-5-(1H-pyrazol-4-yl)pyridin-2-yl]pyridazin-3-yl}-N-methyl-8-azabicyclo[3.2.1]octan-3-amine]	< 100	< 100	> 7.00	> 7.00
CN(c1ccc(-c2ccc(-c3cn[nH]c3)c(C(F)(F)F)n2)nn1)[C@@H]1C[C@H]2CC[C@@H](C1)N2 [Compound 236]	> 10000	> 10000	< 5.00	< 5.00
COc1nc(-c2ccc(O[C@@H]3C[C@H]4CC[C@@H](C3)N4)nn2)ccc1-c1cn(C)nn1 [Compound 290, 3-({6-[6-methoxy-5-(1-methyl-1,2,3-triazol-4-yl)pyridin-2-yl]pyridazin-3-yl}oxy)-8-azabicyclo[3.2.1]octane]	100 to 1000	> 10000	6.00 to 7.00	5.00 to 6.00
CN(c1ccc(-c2ccc(-c3cn[nH]c3)c(C#N)n2)nn1)[C@@H]1C[C@H]2CC[C@@H](C1)N2 [Compound 262, 6-{6-[(1R,3R,5S)-8-azabicyclo[3.2.1]octan-3-yl(methyl)amino]pyridazin-3-yl}-3-(1H-pyrazol-4-yl)pyridine-2-carbonitrile]	< 100	100 to 1000	> 7.00	> 7.00
COc1nc(-c2ccc(OC3CC(C)(C)NC(C)(C)C3)nn2)ccc1-c1cnn(C)n1 [Compound 258, 3-[6-methoxy-5-(2-methyl-1,2,3-triazol-4-yl)pyridin-2-yl]-6-[(2,2,6,6-tetramethylpiperidin-4-yl)oxy]pyridazine]	100 to 1000	1000 to 10000	6.00 to 7.00	5.00 to 6.00
C[C@@H]1C[C@H](N(C)c2ccc(-c3ccc(-c4cn[nH]c4)c(=O)[nH]3)nn2)CCN1 [Compound 126, 6-(6-[methyl[(2R,4R)-2-methylpiperidin-4-yl]amino]pyridazin-3-yl)-3-(1H-pyrazol-4-yl)-1H-pyridin-2-one]	> 10000	> 10000	–	–
COc1nc(-c2ccc(NC3CCNCC3)nn2)ccc1-c1cnn(C)c1 [Compound 257, 6-[6-methoxy-5-(1-methylpyrazol-4-yl)pyridin-2-yl]-N-(piperidin-4-yl)pyridazin-3-amine]	1000 to 10000	1000 to 10000	5.00 to 6.00	5.00 to 6.00
COc1nc(-c2ccc(N(C)[C@@H]3C[C@H]4CC[C@@H](C3)N4)nn2)cnc1-c1cn[nH]c1 [Compound 260, (1R,3R,5S)—N-{6-[6-methoxy-5-(1H-pyrazol-4-yl)pyrazin-2-yl]pyridazin-3-yl}-N-methyl-8-azabicyclo [3.2.1] octan-3-amine hydrochloride]	100 to 1000	100 to 1000	> 7.00	> 7.00
COc1nc(-c2ccc(N(C)[C@H]3CCN[C@@H](C)C3)nn2)ccc1-n1cccn1 [Compound 135, 6-[6-methoxy-5-(pyrazol-1-yl)pyridin-2-yl]-N-methyl-N-[(2S,4S)-2-methylpiperidin-4-yl]pyridazin-3-amine]	> 10000	> 10000	< 5.00	> 7.00
COc1nc(-c2ccc(N(C)[C@@H]3C[C@H]4CC[C@@H](C3)N4)nn2)ccc1-c1cnn(C)c1 [Compound 287, (1R,3s,5S)-N-(6-(6-methoxy-5-(1-methyl-1H-pyrazol-4-yl)pyridin-2-yl)pyridazin-3-yl)-N-methyl-8-azabicyclo [3.2.1] octan-3-amine]	< 100	100 to 1000	> 7.00	> 7.00
CN(c1ccc(-c2ccc(-c3cn[nH]c3)c(=O)[nH]2)nn1)[C@@H]1C[C@H]2CC[C@@H](C1)N2 [Compound 129, 6-[6-[(1R,3S,5S)-8-azabicyclo[3.2.1]octan-3-yl(methyl)amino]pyridazin-3-yl]-3-(1H-pyrazol-4-yl)-1H-pyridin-2-one]	1000 to 10000	1000 to 10000	–	–
